Measured values reported in patent US12295952B2, “Methods of treating heart failure with cardiac sarcomere activators” (Amgen Inc., priority 2017, dated 2025).
Where “and” joins values, the source holds several entries; their conditions need not be identical. Identical values can stand only once. Entries after “also recorded” stand apart in the source; their conditions may differ.

Key:
[1] = tested on: patients with stable, symptomatic chronic heart failure and left ventricular ejection fraction 40% or lower; experiment: COSMIC-HF: changes in cardiac function, ventricular diameters, heart rate and NT-proBNP; type: in vivo, human; conditions: for NT-proBNP concentration in plasma, difference versus placebo: 4 weeks after omecamtiv mecarbil was stopped
Method: (§1) In this randomized, double-blind study, done at 87 sites in 13 countries, patients with stable, symptomatic chronic heart failure and left ventricular ejection fraction 40% or lower were recruited. Patients were randomly assigned equally, via an interactive web response system, to receive 25 mg oral omecamtiv mecarbil twice daily (fixed-dose group), 25 mg twice daily titrated to 50 mg twice daily guided by pharmacokinetics (pharmacokinetic-titration group), or placebo for 20 weeks. The maximum concentration of omecamtiv mecarbil in plasma (primary endpoint) and changes in cardiac function and ventricular diameters were assessed. This trial is registered with ClinicalTrials.gov, number NCT01786512.
(§2) Patients attended study clinics at weeks 2 and 8, after which visits were every 4 weeks until week 24. Transthoracic echocardiograms were done at baseline, week 12, and week 20 and analyzed centrally. Blood samples were obtained at specified visits for analysis in the central laboratory.
(§3) The primary endpoint was the maximum concentration of omecamtiv mecarbil at the week 2 and 12 visits and the predose concentration at the week 2, 8, 12, 16, and 20 visits. Secondary endpoints were changes from baseline in systolic ejection time, stroke volume, left ventricular end-systolic and end-diastolic diameters, heart rate, and concentration of NT-proBNP in plasma at week 20. Additional prespecified exploratory echocardiographic endpoints included left ventricular fractional shortening, end-systolic and end-diastolic volumes, and ejection fraction. The clinical events committee adjudicated whether admissions to hospital and deaths and all episodes of myocardial ischaemia or infarction reported by investigators or based on an increase of cardiac troponin I concentration in plasma met the criteria for study endpoints.
The standard deviations (SDs) for maximum and minimum concentrations of omecamtiv mecarbil in plasma were assumed to be in the range of 40-140 ng/mL.^6-8,11-13 On this basis, it was calculated that 142 patients in the pharmacokinetic-titration group would provide a two-sided 95% CI with half width of 6·6-23·0 ng/mL, assuming that 5% of patients would not have assessable concentrations of omecamtiv mecarbil, which was deemed sufficient for accurate population estimates of these concentrations. Previous work in a similar population of patients had shown that plasma concentrations of omecamtiv mecarbil as low as 100-200 ng/mL had some effect on cardiac function, but that the effect on stroke volume seemed to plateau with concentrations greater than 400 ng/mL, and that plasma concentrations greater than 1200 ng/mL were not clinically tolerated.^7 Thus, it was attempted to achieve a maximum concentration greater than 200 ng/mL and avoid exposures to concentrations greater than 1000 ng/mL. Additionally, with 150 patients in each group and significance set at α=0·05 (two-sided), it was estimated that the statistical power for detecting a treatment effect on the echocardiographic endpoints of systolic ejection time, stroke volume, and left ventricular end-systolic diameter would be more than 90%. Differences between groups for changes in echo cardio graphic variables, heart rate, and NT-proBNP concentrations from baseline were estimated with a repeated measures model fitted separately for each variable and that included the stratification factors of presence or absence of atrial fibrillation or flutter at randomisation, baseline value, treatment group, visit, and treatment group by visit interaction. An unstructured covariance matrix was used to account for the correlation between visits within patients. Least squares mean differences with 95% CIs of the mean relative to placebo are presented unless otherwise indicated. As the study was hypothesis generating, all p values are nominal with no multiplicity adjustment. This study is registered with ClinicalTrials.gov, number NCT01786512.

[2] = COSMIC-HF: concentrations of omecamtiv mecarbil in plasma; type: in vivo; conditions: for Maximum Concentration / Predose Concentration: mean (SD)
Method: as §1
All patients received study treatment or placebo for 20 weeks and were followed up at week 24 after randomization. Patients in the pharmacokinetic-titration group received 25 mg omecamtiv mecarbil twice daily for 2 weeks to reach a steady state. If the trough omecamtiv mecarbil concentration in plasma before the morning dose (predose concentration) at 2 weeks was less than 200 ng/mL, the dose was titrated up to 50 mg twice daily at week 8. If the predose concentration was 200 ng/mL or higher, patients continued taking 25 mg twice daily until the end of the study. To access the pharmacokinetics in this population more rigorously than permitted by just trough sampling, intensive pharmacokinetic sampling was done at the end of weeks 2 and 12, over a period of 8 h on each day.
as §3

[3] = tested on: patients with stable, symptomatic chronic heart failure and left ventricular ejection fraction 40% or lower; experiment: COSMIC-HF: safety variables and adverse events; type: in vivo
Method: as §1, §2, §3

patients = conditions: previous work, similar population of patients; cited from earlier work
[4] = pharmacokinetic-titration group
[5] = week 20, pharmacokinetic-titration group
[6] = Week 2, fixed-dose group (25 mg twice daily)
[7] = Week 12, fixed-dose group (25 mg twice daily)
[8] = Week 12, fixed-dose group (25 mg twice daily), listed as OM
[9] = Week 12, fixed-dose group, of 137 patients with measurements
[10] = Week 12, pharmacokinetic-titration group
[11] = Week 12, pharmacokinetic-titration group, listed as OM
[12] = Week 12, pharmacokinetic-titration group, of 127 patients with measurements
[13] = pharmacokinetic-titration OM group (n = 146)

## COC(=O)N1CCN(Cc2cccc(NC(=O)Nc3ccc(C)nc3)c2F)CC1 [omecamtiv mecarbil]
[1]; fixed-dose group
  NT-proBNP concentration in plasma, difference versus placebo: -1327 pg/mL
[1]; [4]
  NT-proBNP concentration in plasma, difference versus placebo: -1306 pg/mL
[1]; chronic oral administration, across both omecamtiv mecarbil groups
  Systolic ejection times, average increases: 11 to 25 ms
[1]; week 20, fixed-dose group
  NT-proBNP concentration in plasma, least square mean difference versus placebo: -822 pg/mL
  Stroke volume, least square mean difference versus placebo: 5 mL
  Systolic ejection time, least square mean difference versus placebo: 11 ms
[1]; [5]
  Fractional shortening compared with placebo: increases
  Left ventricular end-diastolic and end-systolic volumes compared with placebo: reductions
  NT-proBNP concentration in plasma, least square mean difference versus placebo: -970 pg/mL
  Stroke volume, least square mean difference versus placebo: 3.6 mL and 4 mL
  Systolic ejection time, least square mean difference versus placebo: 25 ms
[2]; [6]
  Maximum Concentration: 212 (70.4) 33.2% ng/mL
  Predose Concentration: 174 (62.2) 35.7% ng/mL
[2]; Week 2, pharmacokinetic-titration group (25 mg titrated to 50 mg twice daily)
  Predose Concentration: 179 (68.8) 38.4% ng/mL
[2]; Week 2, pharmacokinetic-titration group
  Maximum Concentration: 212 (81.0) 38.2% ng/mL
[2]; Week 8, fixed-dose group (25 mg twice daily)
  Predose Concentration: 156 (69.1) 44.2% ng/mL
[2]; Week 8, pharmacokinetic-titration group
  Predose Concentration: 161 (74.4) 46.1% ng/mL
[2]; [7]
  Maximum Concentration: 200 (SD 71) ng/mL and 200 (71) ng/mL
  Predose Concentration: 165 (SD 68) ng/mL
[2]; [8]
  Maximum Concentration: 200 (71.1) 35.6% ng/mL
  Predose Concentration: 165 (67.9) 41.3% ng/mL
[2]; [9]
  Patients with maximum drug concentrations in plasma greater than or equal to 200 ng/mL, %: 46%
  Patients with maximum drug concentrations in plasma greater than or equal to 200 ng/mL, number: 63
[2]; [10]
  Maximum Concentration: 318 (129) ng/mL
  Predose Concentration: 263 (116) ng/mL
[2]; [11]
  Maximum Concentration: 318 (129) 40.5% ng/mL
  Predose Concentration: 263 (116) 44.1% ng/mL
[2]; [12]
  Patients with maximum drug concentrations in plasma greater than or equal to 200 ng/mL, %: 87%
  Patients with maximum drug concentrations in plasma greater than or equal to 200 ng/mL, number: 110
[2]; Week 16, fixed-dose group (25 mg twice daily)
  Predose Concentration: 155 (69.0) 44.6% ng/mL
[2]; Week 16, pharmacokinetic-titration group
  Predose Concentration: 240 (120) 50.0% ng/mL
[2]; Week 20, fixed-dose group (25 mg twice daily)
  Predose Concentration: 149 (71.2) 47.8% ng/mL
[2]; Week 20, pharmacokinetic-titration group
  Predose Concentration: 239 (118) 49.5% ng/mL
[2]; fixed-dose group
  Maximum observed concentration in plasma at any time during the study: 453 ng/mL
[2]; [4]
  Maximum observed concentration in plasma at any time during the study: 831 ng/mL
  Patients with a maximum concentration greater than 750 ng/mL: one
[3]; 20 weeks of treatment
  Frequencies of adverse events, serious adverse events and deaths across groups (versus placebo): did not differ; also recorded: similar
[3]; fixed-dose OM group (n = 150)
  Adjudicated clinical events: Cardiovascular death, %: (1%)
  Adjudicated clinical events: Cardiovascular death, number: 1
  Adjudicated clinical events: Death, %: (1%)
  Adjudicated clinical events: Death, number: 1
[3]; human, in vivo, 20 weeks
  Adjudicated clinical events: Hospital admission: Chest paint†, %: (1%)
  Adjudicated clinical events: Hospital admission: Chest paint†, number: 2
  Adjudicated clinical events: Hospital admission: Myocardial infarction, %: (1%)
  Adjudicated clinical events: Hospital admission: Myocardial infarction, number: 1
  Adjudicated clinical events: Hospital admission: Unstable angina, %: (1%)
  Adjudicated clinical events: Total myocardial infarction**, %: (1%)
  Serious adverse events: Acute cardiac failure, %: (2%)
  Serious adverse events: Acute cardiac failure, number: 3
  Serious adverse events: Cardiac, %: (12%)
  Serious adverse events: Congestive cardiac failure, %: (2%)
  Serious adverse events: Congestive cardiac failure, number: 3
  Serious adverse events: Ventricular tachycardia, %: (1%)
[3]; in vivo
  Adjudicated clinical events: Hospital admission: Myocardial infarction, number: 0
  Cardiac troponin | concentrations: Change to Week 24: 0 ng/mL
  Share of maximum cardiac troponin I increases from baseline that were less than 0·1 ng/mL: 92%
  Share of maximum cardiac troponin I increases from baseline that were less than 0·2 ng/mL: 97%
  Time for plasma cardiac troponin I to return to baseline levels after discontinuing: ≤ 4 weeks
  Troponin-triggered potential adverse events deemed myocardial ischaemia or myocardial infarction on adjudication: none
[3]; [13]
  Adjudicated clinical events: Cardiovascular death, %: (1%)
  Adjudicated clinical events: Cardiovascular death, number: 2
  Adjudicated clinical events: Death, %: (2%)
  Adjudicated clinical events: Death, number: 3
patients
  Plasma concentrations at which the effect on stroke volume seemed to plateau: greater than 400 ng/mL
  Plasma concentrations not clinically tolerated: greater than 1200 ng/mL
  Plasma concentrations that had some effect on cardiac function (as low as): 100 to 200 ng/mL
